The record followed here is ChEMBL document CHEMBL4190352, “Continued SAR exploration of 1,2,4-thiadiazole-containing scaffolds in the design of free fatty acid receptor 1 (GPR40) agonists” (Eur J Med Chem, 2017).

Each structure is given as a SMILES string. The source made the active and inactive calls. The rule behind the calls is not given here.

What all share (format): functional, cell-based
Experiment [1] has as its target T1, Free fatty acid receptor 2 (Homo sapiens) (UniProt O15552).
T1 sequence (whole entry): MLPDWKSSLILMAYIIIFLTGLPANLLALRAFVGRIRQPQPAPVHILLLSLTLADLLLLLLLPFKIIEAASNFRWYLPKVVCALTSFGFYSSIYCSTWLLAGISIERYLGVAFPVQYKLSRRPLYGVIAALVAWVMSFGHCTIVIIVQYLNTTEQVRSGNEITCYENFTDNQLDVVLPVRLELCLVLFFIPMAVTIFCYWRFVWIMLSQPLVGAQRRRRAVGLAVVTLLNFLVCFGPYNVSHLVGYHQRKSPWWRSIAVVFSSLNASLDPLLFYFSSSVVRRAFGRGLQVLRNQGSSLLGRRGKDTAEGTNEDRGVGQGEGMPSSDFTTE
The experiment is described as follows: Agonist activity at GPR43/FFA2 (unknown origin) expressed in CHO cells assessed as increase in calcium flux at 10 uM by Fluo-8 AM dye based FLIPR method.

Experiment [2] addresses T2, Free fatty acid receptor 1 (Homo sapiens, UniProt O14842). The experiment is described as follows: Agonist activity at human GPR40/FFA1 expressed in CHO cells assessed as increase in calcium flux at 1 uM by Fluo-8 AM dye based FLIPR method.
Experiment [3] has as its target T3, Free fatty acid receptor 3 (Homo sapiens) (UniProt O14843).
T3 sequence (whole entry): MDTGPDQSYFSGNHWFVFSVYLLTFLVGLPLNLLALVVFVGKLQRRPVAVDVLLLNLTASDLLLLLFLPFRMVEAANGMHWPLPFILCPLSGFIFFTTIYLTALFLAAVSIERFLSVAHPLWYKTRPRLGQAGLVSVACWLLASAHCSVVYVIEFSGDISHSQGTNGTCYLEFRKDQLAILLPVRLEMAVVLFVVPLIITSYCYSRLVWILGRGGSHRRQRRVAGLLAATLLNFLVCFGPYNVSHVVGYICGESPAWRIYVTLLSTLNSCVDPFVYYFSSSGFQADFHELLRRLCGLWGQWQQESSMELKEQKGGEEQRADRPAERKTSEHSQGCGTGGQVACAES
Put plainly: Agonist activity at GPR41/FFA3 (unknown origin) expressed in CHO cells assessed as increase in calcium flux at 10 uM by Fluo-8 AM dye based FLIPR method. (A change in cytosolic calcium serves as a functional read-out for many receptors and channels.)

In experiment [4] the target is T2, Free fatty acid receptor 1. The experiment is described as follows: Agonist activity at human GPR40/FFA1 expressed in CHO cells assessed as increase in calcium flux at 1 uM by Fluo-8 AM dye based FLIPR method relative to 10 uM GW9508.
Experiment [5] addresses T4, Free fatty acid receptor 4 (Homo sapiens) (UniProt Q5NUL3).
T4 sequence (whole entry): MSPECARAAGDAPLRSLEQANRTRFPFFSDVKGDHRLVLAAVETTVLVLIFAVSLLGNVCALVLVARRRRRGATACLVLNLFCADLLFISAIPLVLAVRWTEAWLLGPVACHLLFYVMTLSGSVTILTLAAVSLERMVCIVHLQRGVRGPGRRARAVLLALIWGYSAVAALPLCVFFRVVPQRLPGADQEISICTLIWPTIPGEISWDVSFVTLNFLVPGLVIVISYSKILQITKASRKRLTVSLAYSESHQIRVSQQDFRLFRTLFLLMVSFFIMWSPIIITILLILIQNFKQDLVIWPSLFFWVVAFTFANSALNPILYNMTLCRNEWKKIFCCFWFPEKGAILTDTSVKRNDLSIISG
Put plainly: Agonist activity at GPR120/FFA4 (unknown origin) expressed in CHO cells assessed as increase in calcium flux at 10 uM by Fluo-8 AM dye based FLIPR method.

T2 sequence (O14842 whole entry): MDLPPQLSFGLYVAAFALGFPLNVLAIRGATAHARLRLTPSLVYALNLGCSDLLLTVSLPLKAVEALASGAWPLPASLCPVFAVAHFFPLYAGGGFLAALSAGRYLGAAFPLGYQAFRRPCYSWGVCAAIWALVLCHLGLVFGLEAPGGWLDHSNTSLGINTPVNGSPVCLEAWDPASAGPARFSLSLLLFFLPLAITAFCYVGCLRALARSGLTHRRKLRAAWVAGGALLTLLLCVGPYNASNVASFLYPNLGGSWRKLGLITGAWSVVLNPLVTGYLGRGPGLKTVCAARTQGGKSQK

Broadly, the EC50 is the concentration at which the effect is half-maximal. As for `O=C(O)CCc1ccc(NC(=O)c2nnc(COc3cccc(Cl)c3)s2)cc1`, the outcome in experiment [1], in experiment [3] and in experiment [5] was inactive. Besides, in experiment [2], the EC50 was 1570 nM. For the same compound, the Activity in experiment [4] came out at 82.9%.
For the compound `COc1ccc(C(Cc2nnc(C(=O)Nc3ccc(CCC(=O)O)cc3)s2)c2ccccc2)cc1` (stereo not given), the result in experiment [1], in experiment [3] and in experiment [5] was inactive. The EC50 in experiment [2] was 1350 nM. In addition, in experiment [4], the Activity is 78.9%.
In the case of `O=C(O)CCc1ccc(NC(=O)c2nnc(CC(c3ccccc3)c3ccccc3F)s2)cc1` (stereo not given), the result in experiment [1], in experiment [3] and in experiment [5] was inactive. The EC50 in experiment [2] turned out to be 1020 nM. The Activity in experiment [4] amounted to 68.6%.
As to `Cc1ccc(OCc2nnc(C(=O)Nc3ccc(CCC(=O)O)cc3)s2)c(C)c1`, the result in experiment [1], in experiment [3] and in experiment [5] was inactive. For the same compound, the EC50 in experiment [2] was 2540 nM. In addition, in experiment [4], the Activity worked out at 74.7%.
